Measured values as given in US20040204499A1, “Preparation for breast duct fluid collection” (priority 2000, published 2004).

Assay: Clinical trial of breast ductal lavage with topical, subcutaneous and/or intraductal anesthesia; patient-recorded pain and post-procedure notes
Type: in vivo, human
Description: A clinical trial was conducted at several different clinical sites by several different physician practitioners. Sometimes the procedures were conducted by practitioners using topical application of anesthetic, subcutaneous anesthesia injection, sometimes using intraductal anesthesia infusion and sometimes all three. […] Apply EMLATM cream (topical anesthetic cream) to the nipple and areola as described in the package insert. […] Dekeratinize the nipple using gauze and a small amount of Omniprep® paste (dekeratinizing agent) or […] gel. Clean the nipple and areola with alcohol and gauze. […] Before attempting ductal catheterization, identify the ductal orifice under magnification, by using the breast aspirator and/or by gently squeezing on the nipple to yield discharge. Use of an incandescent lamp to warm the nipple may help relax the sphincter, thus making cannulation of the duct easier. […] Prepare the nipple and areola with a suitable disinfectant and perform nipple field block as needed. […] Open the catheter package. For intraductal administration of anesthetic, attach anesthetic syringe to inflow (i.e., lower) port and prime the tubing until fluid is expressed through the catheter body and outflow port; leave the syringe attached. […] Ensure that approximately 1 cm of the guidewire protrudes from the catheter tip. Under magnification assistance, if necessary, introduce the pre-seated guidewire/catheter unit into the desired ductal orifice to confirm the location and orientation of the duct. Advance the catheter gradually until the catheter is seated; remove the wire completely. […] Crimp the outflow tubing to prevent return of the anesthetic into the inflow tube. Administer approximately 1 cc of anesthetic through the inflow port (i.e., lower port). Administer more anesthetic as indicated. Disconnect the syringe and set aside for later use. Twist the plunger of a sterile 10 cc syringe to free the seal and attach the syringe to the outflow port. […] Connect saline filled syringe to the inflow (i.e., lower) port. The catheter is now ready for use. […] When Performing saline ductal lavage (i.e. fluid infusion and return): Crimp the outflow tubing to prevent early return into the outflow syringe. Using a 10 cc syringe filled with saline, gradually infuse saline in 0.5 cc increments, or until there is slight resistance or some discomfort (typically 2-3 mLs). Release the crimp on the outflow tubing. Massage the breast towards the nipple with both hands for 30 seconds, especially over the infused duct, taking care not to dislodge the catheter. Cloudy fluid and/or small air bubbles may collect in the catheter body, indicating fluid flow. Crimp the inflow tubing and apply suction to the outflow tubing. […]

pain upon intraductal administration of anesthetic (in some cases, particularly practitioner RP): very low
post procedure notes (patient feedback a day to two weeks after procedure, intraductal lidocaine only): pain
bruising (practitioner PS, routine subcutaneous administration in a field block): highest amount of bruising
SMILES: CCN(CC)CC(=O)Nc1c(C)cccc1C [lidocaine]
lavage pain, intraductal administration compared to subcutaneous injection of anesthetic (conclusion drawn from Table I): no greater
